Measurements as given in patent publication US6387905B2, “Compounds useful for inhibition of farnesyl protein transferase” (Schering Corporation, priority 1996, dated 2002).
pIC50: −log10 of the molar value. Where “and” joins values, the source holds several entries; their conditions need not be identical. Equal entries are not always repeated. Where two headings read alike, the source gives them in different places.

How the values were obtained:
COS Cell = COS Cell IC50 (Cell-Based Assay)
Method: (§1) FPT IC50 (inhibition of farnesyl protein transferase, in vitro enzyme assay) and COS Cell IC50 (Cell-Based Assay) were determined following the assay procedures described in WO 95/10516, published Apr. 20, 1995. GGPT IC50 (inhibition of geranylgeranyl protein transferase, in vitro enzyme assay), Cell Mat Assay, and anti-tumor activity (in vivo anti-tumor studies) could be determined by the assay procedures described in WO 95/10516. The disclosure of WO 95/10516 is incorporated herein by reference thereto.

[1] = target: farnesyl protein transferase (FPT), H-ras (Homo sapiens, UniProt P49354+P49356); test: FPT IC50 (H-ras), inhibition of farnesyl protein transferase, in vitro enzyme assay; assay type: biochemical; settings: for IC50: Table 3, read-out: FPT IC50 (nM) (H-ras)
Method: as §1

Human tumor cells = test: Soft Agar Assay (anchorage-independent growth); assay type: cell-based; settings: Homo sapiens
Method: Anchorage-independent growth is a characteristic of tumorgenic cell lines. Human tumor cells are suspended in growth medium containing 0.3% agarose and an indicated concentration of a farnesyl transferase inhibitor. The solution is overlayed onto growth medium solidified with 0.6% agarose containing the same concentration of farnesyl transferase inhibitor as the top layer. After the top layer is solidified, plates are incubated for 10-16 days at 37° C. under 5% CO2 to allow colony outgrowth. After incubation, the colonies are stained by overlaying the agar with a solution of MTT (3-[4,5-dimethyl-thiazol-2-yl]-2,5-diphenyltetrazolium bromide, Thiazolyl blue) (1 mg/mL in PBS). Colonies can be counted and the IC50's can be determined.

[2] = COS, Table 5, read-out: Cos Cell IC50
[3] = Table 5, read-out: Soft Agar IC50
[4] = H-ras, read-out: FPT IC50 (H-ras)
[5] = COS, read-out: Cos Cell IC50, Table 5
[6] = read-out: Cos Cell IC50, Table 5

pIC50 ([1]; Table 4, read-out: FPT IC50)	pIC50 (Human tumor cells; [3])	SMILES	pIC50 (COS Cell; [2])	also measured
8.14	6.36	O=C(CC1CCN(C(=O)CC2CCCCO2)CC1)N1CCC([C@H]2c3ncc(Br)cc3CCc3cc(Cl)cc(Br)c32)CC1 (stereo partly shown) [Cmpd 114.3-B]	7.96	
7.80		O=C(NO)C(=O)N1CCC(CC(=O)N2CCC([C@H]3c4ncc(Br)cc4CCc4cc(Cl)cc(Br)c43)CC2)CC1 [Cmpd 58.0-B]		
		CC(C)=NOCCC(=O)N1CCC(CC(=O)N2CCC([C@H]3c4ncc(Br)cc4CCc4cc(Cl)cc(Br)c43)CC2)CC1 [Example 23.0-B]		pIC50 [1, 4]: 8.55
8.41	< 6.30	CCOC(=O)c1ncn(CC(=O)N2CCC(CC(=O)N3CCC([C@H]4c5ncc(Br)cc5CCc5cc(Cl)cc(Br)c54)CC3)CC2)c1C [Cmpd 54.0-B]	7.00	
8.17		CCOC(CC(=O)N1CCC(CC(=O)N2CCC([C@H]3c4ncc(Br)cc4CCc4cc(Cl)cc(Br)c43)CC2)CC1)OCC [Cmpd 76.0-B]		
8.46		NC(=O)CCCCC(=O)N1CCC(CC(=O)N2CCC([C@H]3c4ncc(Br)cc4CCc4cc(Cl)cc(Br)c43)CC2)CC1 [Cmpd 67.0-B]		
8.57	6.68	O=C(CC1CCN(C(=O)CN2CCS(=O)(=O)CC2)CC1)N1CCC([C@H]2c3ncc(Br)cc3CCc3cc(Cl)cc(Br)c32)CC1 [Cmpd 6.0-B]	7.52	
8.44		CCOC(=O)c1c(C)ncn1CC(=O)N1CCC(CC(=O)N2CCC([C@H]3c4ncc(Br)cc4CCc4cc(Cl)cc(Br)c43)CC2)CC1 [Cmpd 53.0-B]	7.30	
8.55	< 6.30	CC(C)=NOCCC(=O)N1CCC(CC(=O)N2CCC([C@H]3c4ncc(Br)cc4CCc4cc(Cl)cc(Br)c43)CC2)CC1 [Cmpd 23.0-B]	> 8.00	
8.74	7.71	O=C(CO/N=C/c1cc[n+]([O-])cc1)N1CCC(CC(=O)N2CCC([C@H]3c4ncc(Br)cc4CCc4cc(Cl)cc(Br)c43)CC2)CC1 [Cmpd 22.0-B]	7.46	
8.30	6.48	O=C(CC1CCOCC1)N1CCC(CC(=O)N2CCC([C@H]3c4ncc(Br)cc4CCc4cc(Cl)cc(Br)c43)CC2)CC1 [Cmpd 85.0-B]	7.85	
8.80	< 6.30	Cc1cn(CC(=O)N2CCC(CC(=O)N3CCC([C@H]4c5ncc(Br)cc5CCc5cc(Cl)cc(Br)c54)CC3)CC2)cn1 [Cmpd 11.0-B]	7.54	
8.25		O=C(CC1CCN(C(=O)Cn2cnc(-c3ccccc3)c2)CC1)N1CCC([C@H]2c3ncc(Br)cc3CCc3cc(Cl)cc(Br)c32)CC1 [Cmpd 20.0-B]		
8.48	6.62	NC(=O)CCCCCC(=O)N1CCC(CC(=O)N2CCC([C@H]3c4ncc(Br)cc4CCc4cc(Cl)cc(Br)c43)CC2)CC1 [Cmpd 71.0-B]	7.72	
8.68	< 6.30	CONC(=O)C(=O)N1CCC(CC(=O)N2CCC(C3c4ncc(Br)cc4CCc4cc(Cl)cc(Br)c43)CC2)CC1 (stereo not shown) [Cmpd 49.0-B]	7.42	
8.24	< 6.30	CC(C)=NOCC(=O)N1CCC(CC(=O)N2CCC([C@H]3c4ncc(Br)cc4CCc4cc(Cl)cc(Br)c43)CC2)CC1 [Cmpd 9.0-B]	7.60	
8.42		NCCCC(=O)N1CCC(CC(=O)N2CCC([C@H]3c4ncc(Br)cc4CCc4cc(Cl)cc(Br)c43)CC2)CC1 [Cmpd 90.0-B]		
8.33	6.82	O=C(CC1CCN(C(=O)CN2CCCCC2)CC1)N1CCC([C@H]2c3ncc(Br)cc3CCc3cc(Cl)cc(Br)c32)CC1 [Cmpd 75.0-B]	8.00	
8.11	6.44	O=C(CC1CCN(C(=O)CC2CCCO2)CC1)N1CCC([C@H]2c3ncc(Br)cc3CCc3cc(Cl)cc(Br)c32)CC1 (stereo partly shown) [Cmpd 114.4-B]	8.00	
8.52	< 6.30	O=C(CC1CCN(C(=O)Cn2cnc3ccccc32)CC1)N1CCC([C@H]2c3ncc(Br)cc3CCc3cc(Cl)cc(Br)c32)CC1 [Cmpd 12.0-B]	7.70	
		CC(C)(C)OC(=O)N[C@@H](Cc1ccccc1)C(=O)N1CCC(CC(=O)N2CCC([C@H]3c4ncc(Br)cc4CCc4cc(Cl)cc(Br)c43)CC2)CC1 [Example 7]		IC50 ([1]; H-ras): 31.7 nM

pIC50 ([1]; Table 4, read-out: FPT IC50)	pIC50 (Human tumor cells; [3])	SMILES	pIC50 (COS Cell; [2])	also measured
8.24	< 6.30	CCOC(=O)c1c(C)ncn1CC(=O)N1CCC(CC(=O)N2CCC([C@H]3c4ncc(Br)cc4CCc4cc(Cl)cc(Br)c43)CC2)CC1 [Cmpd 21.0-B]		
8.46	6.30	O=C(CC1CCN(C(=O)C2CC(O)CN2)CC1)N1CCC([C@H]2c3ncc(Br)cc3CCc3cc(Cl)cc(Br)c32)CC1 (stereo partly shown) [Cmpd 63.0-B]	7.26	
8.92	< 6.30	O=C(O)C(=O)N1CCC(CC(=O)N2CCC([C@H]3c4ncc(Br)cc4CCc4cc(Cl)cc(Br)c43)CC2)CC1 [Cmpd 17.0-B]	< 6.00	
8.27	6.30	O=C(NOCc1ccccc1)C(=O)N1CCC(CC(=O)N2CCC([C@H]3c4ncc(Br)cc4CCc4cc(Cl)cc(Br)c43)CC2)CC1 [Cmpd 60.0-B]	6.92	
8.08	< 6.30	O=C(CO/N=C/c1ccccc1O)N1CCC(CC(=O)N2CCC([C@H]3c4ncc(Br)cc4CCc4cc(Cl)cc(Br)c43)CC2)CC1 [Cmpd 95.0-B]	7.96	
8.54	6.30	O=C(Cc1c[nH]cn1)N1CCC(CC(=O)N2CCC([C@H]3c4ncc(Br)cc4CCc4cc(Cl)cc(Br)c43)CC2)CC1 [Cmpd 30.0-B]	8.05	
8.49	6.68	CN(C)S(=O)(=O)NCC(=O)N1CCC(CC(=O)N2CCC([C@H]3c4ncc(Br)cc4CCc4cc(Cl)cc(Br)c43)CC2)CC1 [Cmpd 38.0-B]	8.00	
8.36	< 6.30	O=C(CC1CCN(C(=O)CN2C(=O)CSC2=O)CC1)N1CCC([C@H]2c3ncc(Br)cc3CCc3cc(Cl)cc(Br)c32)CC1 [Cmpd 79.0-B]	6.82	
8.77	6.30	O=C(O)CC(O)CC(=O)N1CCC(CC(=O)N2CCC([C@H]3c4ncc(Br)cc4CCc4cc(Cl)cc(Br)c43)CC2)CC1 (stereo partly shown) [Example 74.0-B]	7.40	
8.03	< 6.30	O=C(C(=O)N1CCC(CC(=O)N2CCC([C@H]3c4ncc(Br)cc4CCc4cc(Cl)cc(Br)c43)CC2)CC1)c1cccs1 [Cmpd 81.0-B]	7.55	
8.59	6.92	N#CCC(=O)N1CCC(CC(=O)N2CCC([C@H]3c4ncc(Br)cc4CCc4cc(Cl)cc(Br)c43)CC2)CC1 [Cmpd 44.0-B]	> 8.00	
8.46	< 6.30	NNC(=O)C(=O)N1CCC(CC(=O)N2CCC([C@H]3c4ncc(Br)cc4CCc4cc(Cl)cc(Br)c43)CC2)CC1 [Cmpd 32.0-B]	7.55	
		O=C(CC1CCN(C(=O)CN2CCS(=O)(=O)CC2)CC1)N1CCC(C2c3ncc(Br)cc3CCc3cc(Cl)cc(Br)c32)CC1 (single isomer, unassigned; (+)) [Example 23]		pIC50 (COS Cell; COS, Table 3, read-out: COS Cell IC50): 7.85; IC50 ([1]; H-ras): 2.7 nM
8.66	7.35	NC(=O)CC(O)CC(=O)N1CCC(CC(=O)N2CCC([C@H]3c4ncc(Br)cc4CCc4cc(Cl)cc(Br)c43)CC2)CC1 (stereo partly shown) [Cmpd 92.0-B]	7.82	
		O=C(CC1CCN(C(=O)CN2C(=O)CSC2=O)CC1)N1CCC([C@H]2c3ncc(Br)cc3CCc3cc(Cl)cc(Br)c32)CC1 [Example 79.0-B]		pIC50 [1, 4]: 8.36
7.74		CC(C)(C)OC(=O)NCCC(=O)N1CCC(CC(=O)N2CCC([C@H]3c4ncc(Br)cc4CCc4cc(Cl)cc(Br)c43)CC2)CC1 [Example 86.0-B]		
8.09		COC(NC(=O)CC(=O)N1CCC(CC(=O)N2CCC([C@H]3c4ncc(Br)cc4CCc4cc(Cl)cc(Br)c43)CC2)CC1)C(C)C (stereo partly shown) [Cmpd 51.0-B]	6.55	
	6.89	CNC(=O)C(=O)N1CCC(CC(=O)N2CCC([C@H]3c4ncc(Br)cc4CCc4cc(Cl)cc(Br)c43)CC2)CC1 [Cmpd 64.0-B]	8.00	
8.59	7.12	O=C(CO)N1CCC(CC(=O)N2CCC([C@H]3c4ncc(Br)cc4CCc4cc(Cl)cc(Br)c43)CC2)CC1 [Cmpd 37.0-B]		
		NC(=O)CCCCC(=O)N1CCC(CC(=O)N2CCC([C@H]3c4ncc(Br)cc4CCc4cc(Cl)cc(Br)c43)CC2)CC1 [Example 108.0-B]		pIC50 [1, 4]: 8.46
> 8.59		O=C(CCN1CCCCC1)N1CCC(CC(=O)N2CCC([C@H]3c4ncc(Br)cc4CCc4cc(Cl)cc(Br)c43)CC2)CC1 [Cmpd 7.0-B]	7.37	

SMILES	pIC50 ([1]; Table 4, read-out: FPT IC50)	pIC50 (Human tumor cells; [3])	pIC50 (COS Cell; [2])	also measured
O=C(O)CCCC(=O)N1CCC(CC(=O)N2CCC([C@H]3c4ncc(Br)cc4CCc4cc(Cl)cc(Br)c43)CC2)CC1 [Example 19.0-B]	8.96			pIC50 (COS Cell; [5]): 7.76; pIC50 (COS Cell; [6]): > 8.00
O=C(O)CC(=O)N1CCC(CC(=O)N2CCC([C@H]3c4ncc(Br)cc4CCc4cc(Cl)cc(Br)c43)CC2)CC1 [Example 14.0-B]	9.05 and 8.72			pIC50 (COS Cell; [5]): 6.60; pIC50 (COS Cell; [6]): 6.70; pIC50 (Human tumor cells; read-out: Soft Agar IC50, Table 5): < 6.30
